Measurements: patent US9814697B2, “Composition for nonalcoholic fatty liver disease (NAFLD)” (Cadila Healthcare Limited, priority 2013, dated 2017)

What was measured:
[1] = tested on: subjects with biopsy proven NASH; test: Prospective, multi-centric, open-label, single arm study in Non-alcoholic steatohepatitis: efficacy parameters; type: in vivo, human
Procedure: (§1) Title of the Study—“A prospective, multi-centric, open-label, single arm study to evaluate the safety and efficacy of 4 mg of magnesium salt of compound of formula (I) wherein R is -SMe in a pharmaceutical composition as described above in Non-alcoholic steatohepatitis.”
(§2) To evaluate the safety and efficacy of 4 mg of magnesium salt of compound of formula (I) wherein R is -SMe in Non-alcoholic steatohepatitis (NASH).
(§3) • Primary Efficacy (Time Frame 6 and 12 Weeks): • 1. Change in alanine aminotransferase (ALT) from baseline • Secondary Efficacy (Time Frame 6 and 12 Weeks): • Sustained reduction in ALT level. • C-peptide test for homeostasis model assessment (HOMA) beta and HOMA IR • Triglyceride (TG) Criteria for Safety: • 1. General and Systemic Clinical Examination: Cardiovascular system (CVS), respiratory system (RS), gastro-intestinal system (GIS), central nervous system (CNS) etc. • 2. Laboratory Investigations: Complete blood count (CBC), aspartate aminotransferase(AST), ALT, alkaline phosphatase (ALP), serum bilirubin, γ-glutamyl transpeptidase (GGT), Serum proteins, blood urea nitrogen (BUN), Serum creatinine, creatinine phosphokinase (CPK), fasting plasma glucose (FPG). • 3. Frequency and severity of adverse events (AEs) for all subjects enrolled were recorded. All AEs, were classified using • causality • severity • seriousness Methodology:
(§4) It is an interventional, single arm, safety and efficacy study to explore effect of magnesium salt of compound of formula (I) wherein R is -SMe suitably formulated as described above, on NASH.
Subjects was diagnosed by biopsy as suffering from NASH in last one year and willing to participate in study were invited for screening programme for inclusion in the study.
(§5) All subjects were given suitable formulation of magnesium salt of compound of formula (I) wherein R is -SMe 4 mg for 12 weeks. Lifestyle modification was continued as before the study. Patient was monitored for safety and efficacy of magnesium salt of compound of formula (I) wherein R is -SMe.
(§6) After Clinical evaluations, all baseline safety and efficacy parameters were recorded as per Table (I) given below. All laboratory investigations were carried out after overnight fasting.
(§7) Safety and efficacy parameters were assessed as per Table (I) given below.
Subjects were clinically examined and safety and efficacy parameters were assessed as per Table (I) given below. […]

[2] = tested on: subjects with biopsy proven NASH; test: Prospective, multi-centric, open-label, single arm study in Non-alcoholic steatohepatitis: safety and tolerability; type: in vivo, human
Procedure: as §1, §2, §3, §4, §5, §6
Subjects were clinically examined and given the study medications for four weeks and also safety parameters were assessed as per Table (I)given below.
as §7
Subjects were clinically examined and safety and efficacy parameters were assessed as per Table (I) given below.
If further investigations are required in case of any AE, investigator will be advised to assess the AE and take necessary action, if required. Subjects will be advised to contact the investigator for any complaints within next two weeks. […]

[3] = 4 mg, Safety Population, at Week 3 and at Week 4 (so in the source), FIG. 2
[4] = 4 mg, at 6 and 12 weeks, PP analysis, FIG. 3
[5] = 4 mg, during the study, mild, none considered clinically significant by the investigator

CCO[C@@H](Cc1ccc(OCCn2c(C)ccc2-c2ccc(SC)cc2)cc1)C(=O)[O-].CCO[C@@H](Cc1ccc(OCCn2c(C)ccc2-c2ccc(SC)cc2)cc1)C(=O)[O-].[Mg+2]
Change in ALT levels from baseline ([1]; 4 mg for 12 weeks, NASH patients, PP population, visit 3 (week 6) and visit 4 (week 12), FIG. 1): statistically significant reduction | Patients with sustained reduction in ALT levels ([1]; 4 mg, PP population, visit 3 (week 6)): 63.16 % of patients | Patients with sustained reduction in ALT levels ([1]; 4 mg, PP population, visit 4 (week 12)): 78.95 % of patients | Change in Aspartate Transaminase [1, 3]: statistical significant decrease | Change in alkaline phosphatase [1, 3]: statistical significant decrease | Change in gamma-glutamyl transpeptidase [1, 3]: statistical significant decrease | Change in C peptide levels [1, 4]: non-significant change | Change in HOMA-Beta cell function [1, 4]: non-statistically significant reduction | Change in HOMA-Insulin Resistance [1, 4]: non-statistically significant reduction | Decrease in triglyceride as compared to baseline ([1]; 4 mg, patients with baseline TG<150 mg/dl, week 12, PP population, FIG. 4): not statistically significant | Decrease in serum triglycerides as compared to baseline ([1]; 4 mg, patients with baseline TG≧150 mg/dl, week 6 and 12, PP population, FIG. 4): not statistically significant | Overall safety and tolerability ([2]; 4 mg for 12 weeks, NASH patients): safe and well tolerated | Changes from baseline in various laboratory parameters ([2]; 4 mg treatment arm): no persistent changes from baseline | Deaths or SAEs reported ([2]; 4 mg treatment arm): no deaths or SAEs | Overall incidence of AEs ([2]; 4 mg treatment arm): Nil | Change in weight compared to baseline ([2]; 4 mg, NASH patients, visit 2, 3 and 4): no significant change in weight | Events of raised CPK value [2, 5]: five | Events of raised creatinine [2, 5]: Few events
